# Laboratory results taken from patent US20030099983A1, “Cyclic and substituted immobilized molecular synthesis” (Affymetrix, Inc., priority 1991, published 2003).
# System: monoclonal antibody D32.39
# Conditions: normalized 0 to 100% after background subtraction
# Description: Non-specific protein binding to the surface was blocked with 1% BSA/PBS/0.05% Tween 20. The array was incubated with the D32.39 antibody at a concentration of 10 μg/ml for 2 hours, followed by reaction with 10 μg/ml of FITC conjugated anti-mounse antibody (Sigma) for 2 hours at 20° C. Following extensive washing with buffer, the array was scanned in a confocal fluorescence microscope with 488 nm excitation from an argon ion laser (Spectra-Physics). […] The replicates were averaged, and the data sorted according to desired sequences.
row,Substance,relative intensity (normalized fluorescence signal)
1,FLRRQFKVVT,about 100%

# Same assay, conditions: relative fluorescence intensity of the corresponding surface-immobilized peptide (N-acetylated, C-terminal amide link to surface)
row,Substance,Normalized Intensity (%)
1,Ac-FLRRQFKVVT-OH,98
2,Ac-RQFKVVT-OH [Ac-RQFKVVT-OH],99
3,Ac-QFKVVT-OH [Ac-QFKVVT-OH],28
4,Ac-RRQFKVVT-OH,99

# Same assay, conditions: truncated dynorphin peptides, surface-immobilized, N-acetylated, linked via C-terminal amide; D32.39 10 μg/ml 2 hours; ± SD of min. four replicates; […]
row,Substance,Normalized Intensity (%)
1,FKVV,10 ± 2
2,RQFKV,16 ± 4
3,FKVVT,13 ± 4
4,RRQFK,12 ± 3
5,QFKV,11 ± 2
6,RRQFKVV,58 ± 10
7,FLRRQF,8 ± 3
8,FLRRQFKVVT,98 ± 1
9,KVVT,11 ± 2
10,RQFKVVT,99 ± 1
11,LRRQF,10 ± 4
12,QFKVV,17 ± 2
13,LRRQFKV,16 ± 3
14,RRQF,11 ± 5
15,FLRRQFKVV,37 ± 15
16,LRRQFKVVT,87 ± 13
17,FLRRQFK,10 ± 3
18,LRRQFKVV,44 ± 12
19,FLRRQ,8 ± 3
20,LRRQ,10 ± 4
21,RQFKVV,54 ± 11
22,RRQFKVVT,99 ± 1
23,FLRRQFKV,14 ± 3
24,LRRQFK,12 ± 3
25,RQFK,13 ± 5
26,RRQFKV,16 ± 3
27,QFKVVT,28 ± 3
28,FLRR,6 ± 3
